# Patent publication US20140143910A1, “COMPOSITION THAT AUGMENTS PLANT DISEASE RESISTANCE AND/OR BRANCHING” (Riken, priority 2011, published 2014)
# Tested on: PR1 gene
# Test: PR1 gene expression by real-time PCR in rosette leaves of wild-type strain and bil3 mutant, treated or untreated with brassinolide
# Assay type: in vivo, Arabidopsis thaliana
# Conditions: BL-treated bil3 mutant (BIL3 gene-overexpressing), compared with the wild-type strain; FIG. 7
# Experimental: Individuals of the wild-type strain and the bil3 mutant grown in the same way as in Example 1 were treated or untreated with brassinolide (BL), one type of BR, to prepare samples. Total RNA was extracted from the rosette leaf of each strain using RNeasy Plant Mini Kit (Qiagen N.V.). Next, cDNA was synthesized from the extracted total RNA using PrimeScript First-Strand cDNA Synthesis Kit (Takara Bio Inc.). Specific procedures for the total RNA extraction and the cDNA synthesis followed the protocol included in each kit. Subsequently, the expression of the PR1 gene was analyzed by real-time PCR with the synthesized cDNA as a template using primers PR1-RT-F represented by SEQ ID NO: 46 and PR1-RT-R represented by SEQ ID NO: 47, SYBR Premix EX Taq kit (Takara Bio Inc.) and a real-time PCR apparatus Thermal Cycler Dice (Takara Bio Inc.).
smiles,measurement,value
"CC(C)[C@H](C)[C@@H](O)[C@H](O)[C@@H](C)[C@H]1CC[C@H]2[C@@H]3COC(=O)[C@H]4C[C@H](O)[C@H](O)C[C@]4(C)[C@H]3CC[C@]12C [BL, brassinolide]","expression level of the PR1 gene, relative value with the BL-untreated wild-type strain as 1",approximately 40 times
